# Source: patent US20220031723A1, “POWDERED FOOD COMPOSITION COMPRISING ERIOCITRIN” (EUROMED, S.A., priority 2020, published 2022)
# Columns and labels:
# [1] = cited from earlier work; for water solubility: in water
# [2] = Urinary excretion of quantified metabolites in collected fractions after extract intake; format: in vivo, human; settings: after consuming lemon extract, mean ± SD
# Procedure: Table 4 and Table 5 show the urinary excretion of quantified metabolites at the different fractions collected, i.e., 0-4 h (F1), 4-8 h (F2), 8-10 h (F3), and 10-24 h (F4), after extracts intake.
# [3] = Occurrence of plasma and urine metabolites in volunteers after consuming lemon or orange extract; format: in vivo, human; settings: human, in vivo
# Excerpt: Through a targeted metabolomic strategy, a total of 17 metabolites were tentatively identified (Table 3). No hesperidin or eriocitrin-derived metabolites were detected in any volunteer at baseline. All the identified metabolites were detected at least in one volunteer, independently of the extract consumed, except for the metabolites M9 (eriodictyol sulfoglucuronide) and M11 (hesperetin sulfoglucuronide), which only were detected after consuming lemon and orange extract, respectively (Table 3). These representative EICs illustrate the metabolites identified in urine (F3 fraction) after consuming lemon (FIG. 3A) and orange (FIG. 3B) extracts, and plasma after consuming lemon (FIG. 3C) and orange (FIG. 3D) extracts. From the 17 metabolites, 16 were detected after consuming lemon extract (except M11), and 15 after consuming orange extract (except M9 and M10 in urine, and M9 and M12 in plasma) (Table 3).
Metabolite quantified in urine fraction F1 ([2]; fraction 0 to 4 h) [μg/mg creatinine],Metabolite quantified in urine fraction F2 ([2]; fraction 4 to 8 h) [μg/mg creatinine],Metabolite quantified in urine fraction F3 ([2]; fraction 8 to 10 h) [μg/mg creatinine],Metabolite quantified in urine fraction F4 ([2]; fraction collected at 24 h (10-24 h)) [μg/mg creatinine],"Metabolite quantified in urine, Total F (24 h) ([2]; sum of fractions F1-F4) [μg/mg creatinine]",Occurrence Plasma LE (number of volunteers in whom metabolite was detected) [3],Occurrence Plasma LE (second column so headed; number of volunteers in whom metabolite was detected) [3],Occurrence Urine LE (number of volunteers in whom metabolite was detected) [3],Occurrence Urine LE (second column so headed; number of volunteers in whom metabolite was detected) [3],Compound,solubility in water [1] [micrograms/ml],water solubility [1]
,,,,,,,,,"C[C@@H]1O[C@@H](OC[C@H]2O[C@@H](Oc3cc(O)c4c(c3)O[C@H](c3ccc(O)c(O)c3)CC4=O)[C@H](O)[C@@H](O)[C@@H]2O)[C@H](O)[C@H](O)[C@H]1O [eriocitrin, Eriocitrin]",4000,about 40 mg/ml
,,,,,,,,,"COc1ccc([C@@H]2CC(=O)c3c(O)cc(O[C@@H]4O[C@H](CO[C@@H]5O[C@@H](C)[C@H](O)[C@@H](O)[C@H]5O)[C@@H](O)[C@H](O)[C@H]4O)cc3O2)cc1O [hesperidin, Hesperidin, reference compound]",5,4.9 µg/mL
3.8 ± 3.2,4.0 ± 5.5,3.6 ± 4.1,0.5 ± 0.4,9.6 ± 11.3,16,3,16,0,Homoeriodictyol sulfate [M10],,
